Results taken from US20240190883A1, “KRAS PROTEIN DEGRADERS, PHARMACEUTICAL COMPOSITIONS THEREOF, AND THEIR THERAPEUTIC APPLICATIONS” (BioTheryX, Inc., priority 2021, published 2024).

How the values were obtained:
Assay type in all cases: cell-based
Molm-13 cells = assay: Cell viability assay, inhibition of Molm-13 cells; settings: Homo sapiens; for inhibition at 1 µM: compound at 1 μM; for inhibition at 3 µM: compound at 3 μM
Experimental: [Worded in the source for another cell line; this cell line is reported under the same test.] (§1) H358, H23, SW48, and AsPC-1 cells were cultured in RPMI 1640 media supplemented with 10% fetal bovine serum, streptomycin, and penicillin. Lovo and SW480 cells were cultured in DMEM media supplemented with 10% fetal bovine serum, streptomycin, and penicillin. The cell lines were plated in their respective medium supplemented with 2.5% fetal bovine serum, streptomycin, and penicillin. All cell lines were plated in white walled 96-well plates at 2,000 cells/well or 384-well plates at 500 cells/well, except Lovo, which were plated at 4,000 or 1,000 cells/well, respectively. The cells were incubated in DMSO (control) or a compound for 3 days at 37° C. under 5% C02. A CELLTITER-GLO® reagent (100 μL) was then added to each well. After a 10 min incubation with shaking, luminescence was measured using an ENVISION® multimode plate reader. IC50 values are summarized in Table 1 and percentages of inhibition are summarized in Table 2, where compound T1 is 2-(4-(2-methyl-3,5-diphenylpyrazolo[1,5-a]pyrimidin-7-yl)piperazin-1-yl)ethan-1-ol.

SW48 (wt) cells = assay: Cell viability assay (CELLTITER-GLO), SW48 cells; settings: Homo sapiens, 72 h, 3 days incubation, 2.5% fetal bovine serum, read-out: Inhibition of Cancerous Cells IC50 (μM) SW48 (wt)
Experimental: as §1

AsPC-1 (G12D) cells = assay: Cell viability assay (CELLTITER-GLO), AsPC-1 cells; settings: Homo sapiens, ASPC1, 72 h, 3 days incubation, 2.5% fetal bovine serum, read-out: Inhibition of Cancerous Cells IC50 (μM) AsPC-1 (G12D)
Experimental: as §1

H358 (G12C) cells = assay: Cell viability assay (CELLTITER-GLO), H358 cells; settings: Homo sapiens, NCI-H358, 72 h, 3 days incubation, 2.5% fetal bovine serum, read-out: Inhibition of Cancerous Cells IC50 (μM) H358 (G12C)
Experimental: as §1

SW480 (G12V) cells = assay: Cell viability assay (CELLTITER-GLO), SW480 cells; settings: Homo sapiens, 72 h, 3 days incubation, 2.5% fetal bovine serum, read-out: Inhibition of Cancerous Cells IC50 (μM) SW480 (G12V)
Experimental: as §1

Lovo (G13D) cells = assay: Cell viability assay (CELLTITER-GLO), Lovo cells; settings: Homo sapiens, 72 h, 3 days incubation, 2.5% fetal bovine serum, read-out: Inhibition of Cancerous Cells IC50 (μM) Lovo (G13D)
Experimental: as §1

Structure (SMILES) | inhibition at 1 µM (Molm-13 cells) [%] | inhibition at 3 µM (Molm-13 cells) [%] | IC50 (SW48 (wt) cells) [µM] | IC50 (AsPC-1 (G12D) cells) [µM] | IC50 (H358 (G12C) cells) [µM] | IC50 (SW480 (G12V) cells) [µM] | IC50 (Lovo (G13D) cells) [µM]
Cc1nn2c(N3CCN(CCO)CC3)cc(-c3cccc(CCCN4CCN(C(=O)CNc5ccc6c(C7CCC(=O)NC7=O)nn(C)c6c5)CC4)c3)nc2c1-c1ccccc1 (centres unmarked) [Compound D1, 3-(6-((2-(4-(3-(3-(7-(4-(2-Hydroxyethyl)piperazin-1-yl)-2-methyl-3-phenyl-pyrazolo[1,5-a]pyrimidin-5-yl)phenyl)propyl)piperazin-1-yl)-2-oxoethyl)amino)-1-methyl-1H-indazol-3-yl)piperidine-2,6-dione] | 24 | 98 | – | – | – | – | –
Cc1nn2c(N3CCN(CCO)CC3)cc(-c3ccccc3)nc2c1-c1cccc(CCCCCCCN2CCN(C(=O)COc3ccc(N4CCC(=O)NC4=O)cc3)CC2)c1 [Compound C8, 1-(4-(2-(4-(7-(3-(7-(4-(2-Hydroxyethyl)piperazin-1-yl)-2-methyl-5-phenyl-pyrazolo[1,5-a]pyrimidin-3-yl)phenyl)heptyl)piperazin-1-yl)-2-oxoethoxy)phenyl)dihydro-pyrimidine-2,4(1H,3H)-dione] | – | – | 0.66 | 1.1 | 1.1 | 0.42 | 0.71
Cc1nn2c(N3CCN(CCO)CC3)cc(-c3ccccc3)nc2c1-c1cccc(CCCCCCCN2CCN(C(=O)CNc3ccc4c(C5CCC(=O)NC5=O)nn(C)c4c3)CC2)c1 (centres unmarked) [Compound D9, 3-(6-((2-(4-(7-(3-(7-(4-(2-Hydroxyethyl)piperazin-1-yl)-2-methyl-5-phenyl-pyrazolo[1,5-a]pyrimidin-3-yl)phenyl)heptyl)piperazin-1-yl)-2-oxoethyl)amino)-1-methyl-1H-indazol-3-yl)piperidine-2,6-dione] | – | – | 0.72 | 1.3 | 1 | 0.46 | 0.51
Cc1nn2c(N3CCN(CCO)CC3)cc(-c3ccccc3)nc2c1-c1cccc(CCCN2CCN(C(=O)CNc3ccc4c(C5CCC(=O)NC5=O)nn(C)c4c3)CC2)c1 (centres unmarked) [Compound D7, 3-(6-((2-(4-(3-(3-(7-(4-(2-Hydroxyethyl)piperazin-1-yl)-2-methyl-5-phenyl-pyrazolo[1,5-a]pyrimidin-3-yl)phenyl)propyl)piperazin-1-yl)-2-oxoethyl)amino)-1-methyl-1H-indazol-3-yl)piperidine-2,6-dione] | – | – | 1.2 | 1.3 | 3.3 | 0.86 | 1.3
Cc1nn2c(N3CCN(CCO)CC3)cc(-c3ccccc3)nc2c1-c1cccc(CCCCCCCN2CCN(C(=O)CNc3ccc4c(N5CCC(=O)NC5=O)nn(C)c4c3)CC2)c1 [Compound D15, 1-(6-((2-(4-(7-(3-(7-(4-(2-Hydroxyethyl)piperazin-1-yl)-2-methyl-5-phenyl-pyrazolo[1,5-a]pyrimidin-3-yl)phenyl)heptyl)piperazin-1-yl)-2-oxoethyl)amino)-1-methyl-1H-indazol-3-yl)dihydropyrimidine-2,4(1H,3H)-dione] | – | – | 1.1 | 1.4 | 1.3 | 0.56 | 0.64
Cc1nn2c(N3CCN(CCO)CC3)cc(-c3ccccc3)nc2c1-c1cccc(CCCCCN2CCN(C(=O)COc3cccc(N4CCC(=O)NC4=O)c3)CC2)c1 [Compound C10, 1-(3-(2-(4-(5-(3-(7-(4-(2-Hydroxyethyl)piperazin-1-yl)-2-methyl-5-phenyl-pyrazolo[1,5-a]pyrimidin-3-yl)phenyl)pentyl)piperazin-1-yl)-2-oxoethoxy)phenyl)dihydro-pyrimidine-2,4(1H,3H)-dione] | 29 | 98 | – | – | – | – | –
Cc1nn2c(N3CCN(CCO)CC3)cc(-c3ccccc3)nc2c1-c1cccc(CCCCCCCN2CCN(C(=O)CNc3cccc4c(C5CCC(=O)NC5=O)nn(C)c34)CC2)c1 (centres unmarked) [Compound D12, 3-(7-((2-(4-(7-(3-(7-(4-(2-Hydroxyethyl)piperazin-1-yl)-2-methyl-5-phenyl-pyrazolo[1,5-a]pyrimidin-3-yl)phenyl)heptyl)piperazin-1-yl)-2-oxoethyl)amino)-1-methyl-1H-indazol-3-yl)piperidine-2,6-dione] | – | – | 0.96 | 1.4 | 1.2 | 0.47 | 0.92
